Assay results from PubChem BioAssay (NCI).
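Five concentrations, 48 hours, 96-well plates. GI50 is the concentration that inhibits growth by half. Definition used: TGI = concentration required for complete inhibition of growth.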

How the values were obtained:
Test in all cases: NCI tumour cell line growth inhibition, 48 h
[1] = test system: 786-0 renal
[2] = test system: A498 renal
[3] = test system: A549 NSCLC
[4] = test system: ACHN renal
[5] = test system: CAKI-1 renal
[6] = test system: CCRF-CEM leukemia
[7] = test system: COLO 205 colon
[8] = test system: DU-145 prostate
[9] = test system: EKVX NSCLC
[10] = test system: HCC-2998 colon
[11] = test system: HCT-116 colon
[12] = test system: HCT-15 colon
[13] = test system: HL-60(TB) leukemia
[14] = test system: HOP-62 NSCLC
[15] = test system: HOP-92 NSCLC
[16] = test system: HS 578T breast
[17] = test system: HT29 colon
[18] = test system: IGROV1 ovarian
[19] = test system: KM12 colon
[20] = test system: LOX IMVI melanoma
[21] = test system: M14 melanoma
[22] = test system: MALME-3M melanoma
[23] = test system: MCF7 breast
[24] = test system: MDA-MB-231 breast
[25] = test system: MDA-MB-435
[26] = test system: MOLT-4 leukemia
[27] = test system: NCI-H23 lung
[28] = test system: NCI-H460 lung
[29] = test system: NCI-H522 lung
[30] = test system: NCI/ADR-RES ovarian
[31] = test system: OVCAR-3 ovarian
[32] = test system: OVCAR-4 ovarian
[33] = test system: OVCAR-5 ovarian
[34] = test system: OVCAR-8 ovarian
[35] = test system: PC-3 prostate
[36] = test system: RPMI-8226 leukemia
[37] = test system: SF-268 CNS
[38] = test system: SF-295 CNS
[39] = test system: SF-539 CNS
[40] = test system: SK-MEL-2 melanoma
[41] = test system: SK-MEL-28 melanoma
[42] = test system: SK-MEL-5 melanoma
[43] = test system: SN12C renal
[44] = test system: SNB-75 CNS
[45] = test system: SR leukemia
[46] = test system: SW-620 colon
[47] = test system: T-47D breast
[48] = test system: TK-10 renal
[49] = test system: U251 CNS
[50] = test system: UACC-257 melanoma
[51] = test system: UACC-62 melanoma
[52] = test system: UO-31 renal
[53] = test system: BT-549 breast
[54] = test system: NCI-H226 lung
[55] = test system: SK-OV-3 ovarian
[56] = test system: SNB-19 CNS

Question: What does the source list for CCOC(=O)C1C(c2ccc3c(c2)OCO3)c2c([nH][nH]c2=O)CC1(O)OCC (stereo not drawn)?
Answer: TGI [1]: > 100 µM; TGI [2]: > 100 µM; TGI [3]: > 100 µM; TGI [4]: > 100 µM; TGI [5]: > 100 µM; TGI [6]: > 100 µM; TGI [7]: > 100 µM; TGI [8]: > 100 µM; TGI [9]: > 100 µM; TGI [10]: > 100 µM; TGI [11]: > 100 µM; TGI [12]: > 100 µM; TGI [13]: > 100 µM; TGI [14]: > 100 µM; TGI [15]: > 100 µM; TGI [16]: > 100 µM; TGI [17]: > 100 µM; TGI [18]: > 100 µM; TGI [19]: > 100 µM; TGI [20]: > 100 µM; TGI [21]: > 100 µM; TGI [22]: > 100 µM; TGI [23]: > 100 µM; TGI [24]: > 100 µM; TGI [25]: > 100 µM; TGI [26]: > 100 µM; TGI [27]: > 100 µM; TGI [28]: > 100 µM; TGI [29]: > 100 µM; TGI [30]: > 100 µM; TGI [31]: > 100 µM; TGI [32]: > 100 µM; TGI [33]: > 100 µM; TGI [34]: > 100 µM; TGI [35]: > 100 µM; TGI [36]: > 100 µM; TGI [37]: > 100 µM; TGI [38]: > 100 µM; TGI [39]: > 100 µM; TGI [40]: > 100 µM; TGI [41]: > 100 µM; TGI [42]: > 100 µM; TGI [43]: > 100 µM; TGI [44]: > 100 µM; TGI [45]: > 100 µM; TGI [46]: > 100 µM; TGI [47]: > 100 µM; TGI [48]: > 100 µM; TGI [49]: > 100 µM; TGI [50]: > 100 µM; TGI [51]: > 100 µM; TGI [52]: > 100 µM

Question: With CCOC(=O)c1cc(C(=O)c2cc(OC)c(OC)c(OC)c2)n2nc(C)ccc12 as the compound, how does the GI50 [1] read?
Answer: Its GI50 is 0.335 µM.

Question: And the TGI [1]?
Answer: The TGI was greater than 100 µM.

Question: And the GI50 [2]?
Answer: Its GI50 is 0.0762 µM.

Question: What about the TGI [2] of the same compound?
Answer: The TGI was 0.931 µM.

Question: What about the GI50 [3] of the same compound?
Answer: Its GI50 is 0.223 µM.

Question: What about the TGI [3] of the same compound?
Answer: Its TGI is greater than 100 µM.

Question: What about the GI50 [4] of the same compound?
Answer: The GI50 was 0.524 µM.

Question: And the TGI [4]?
Answer: The TGI was greater than 100 µM.

Question: And the GI50 [53]?
Answer: The GI50 was 0.878 µM.

Question: What about the TGI [53] of the same compound?
Answer: The TGI was greater than 100 µM.

Question: And the GI50 [6]?
Answer: The GI50 was 0.212 µM.

Question: And the TGI [6]?
Answer: Its TGI is greater than 100 µM.

Question: What about the GI50 [8] of the same compound?
Answer: The GI50 was 0.391 µM.

Question: What about the TGI [8] of the same compound?
Answer: The TGI was greater than 100 µM.

Question: What about the GI50 [9] of the same compound?
Answer: The GI50 was 0.479 µM.

Question: And the TGI [9]?
Answer: The TGI was greater than 100 µM.

Question: And the GI50 [10]?
Answer: Its GI50 is 0.493 µM.

Question: What about the TGI [10] of the same compound?
Answer: The TGI was greater than 100 µM.

Question: And the GI50 [11]?
Answer: Its GI50 is 0.164 µM.

Question: What about the TGI [11] of the same compound?
Answer: Its TGI is greater than 100 µM.

Question: What about the GI50 [12] of the same compound?
Answer: Its GI50 is 0.0844 µM.

Question: And the TGI [12]?
Answer: The TGI was greater than 100 µM.

Question: And the GI50 [13]?
Answer: The GI50 was 0.16 µM.

Question: And the TGI [13]?
Answer: Its TGI is 0.588 µM.

Question: And the GI50 [14]?
Answer: The GI50 was 0.398 µM.

Question: What about the TGI [14] of the same compound?
Answer: The TGI was greater than 100 µM.

Question: And the GI50 [15]?
Answer: The GI50 was 3.52 µM.

Question: And the TGI [15]?
Answer: The TGI was greater than 100 µM.

Question: And the GI50 [16]?
Answer: Its GI50 is 0.19 µM.

Question: What about the TGI [16] of the same compound?
Answer: The TGI was greater than 100 µM.

Question: And the GI50 [17]?
Answer: Its GI50 is 0.133 µM.

Question: And the TGI [17]?
Answer: Its TGI is greater than 100 µM.

Question: What about the GI50 [18] of the same compound?
Answer: Its GI50 is 0.379 µM.

Question: And the TGI [18]?
Answer: The TGI was greater than 100 µM.

Question: What about the GI50 [19] of the same compound?
Answer: Its GI50 is 0.0577 µM.

Question: And the TGI [19]?
Answer: Its TGI is greater than 100 µM.

Question: And the GI50 [20]?
Answer: Its GI50 is 0.498 µM.

Question: What about the TGI [20] of the same compound?
Answer: The TGI was greater than 100 µM.

Question: And the GI50 [23]?
Answer: The GI50 was 0.0481 µM.

Question: What about the TGI [23] of the same compound?
Answer: The TGI was greater than 100 µM.

Question: And the GI50 [24]?
Answer: Its GI50 is 0.524 µM.

Question: What about the TGI [24] of the same compound?
Answer: The TGI was greater than 100 µM.

Question: What about the GI50 [26] of the same compound?
Answer: The GI50 was 0.396 µM.

Question: What about the TGI [26] of the same compound?
Answer: The TGI was greater than 100 µM.

Question: What about the GI50 [54] of the same compound?
Answer: Its GI50 is 45 µM.

Question: And the TGI [54]?
Answer: Its TGI is greater than 100 µM.

Question: And the GI50 [27]?
Answer: Its GI50 is 0.418 µM.

Question: And the TGI [27]?
Answer: Its TGI is greater than 100 µM.

Question: What about the GI50 [28] of the same compound?
Answer: The GI50 was 0.133 µM.

Question: And the TGI [28]?
Answer: Its TGI is greater than 100 µM.

Question: What about the GI50 [29] of the same compound?
Answer: Its GI50 is 0.171 µM.

Question: And the TGI [29]?
Answer: Its TGI is greater than 100 µM.

Question: And the GI50 [30]?
Answer: The GI50 was 0.123 µM.

Question: What about the TGI [30] of the same compound?
Answer: The TGI was 1.93 µM.

Question: And the GI50 [31]?
Answer: The GI50 was 0.0648 µM.

Question: What about the TGI [31] of the same compound?
Answer: The TGI was 1.27 µM.

Question: What about the GI50 [32] of the same compound?
Answer: Its GI50 is 1.72 µM.

Question: What about the TGI [32] of the same compound?
Answer: Its TGI is greater than 100 µM.

Question: And the GI50 [33]?
Answer: Its GI50 is 0.472 µM.

Question: And the TGI [33]?
Answer: The TGI was greater than 100 µM.

Question: What about the GI50 [34] of the same compound?
Answer: The GI50 was 0.518 µM.

Question: What about the TGI [34] of the same compound?
Answer: Its TGI is greater than 100 µM.

Question: And the GI50 [35]?
Answer: The GI50 was 0.0939 µM.

Question: And the TGI [35]?
Answer: Its TGI is greater than 100 µM.

Question: What about the GI50 [37] of the same compound?
Answer: The GI50 was 0.55 µM.

Question: And the TGI [37]?
Answer: The TGI was greater than 100 µM.

Question: What about the GI50 [38] of the same compound?
Answer: The GI50 was 0.0657 µM.

Question: And the TGI [38]?
Answer: The TGI was greater than 100 µM.

Question: And the GI50 [39]?
Answer: Its GI50 is 0.13 µM.

Question: And the TGI [39]?
Answer: Its TGI is 0.771 µM.

Question: And the GI50 [40]?
Answer: Its GI50 is 0.495 µM.

Question: And the TGI [40]?
Answer: The TGI was greater than 100 µM.

Question: And the GI50 [41]?
Answer: Its GI50 is 12 µM.

Question: And the TGI [41]?
Answer: The TGI was greater than 100 µM.

Question: And the GI50 [42]?
Answer: Its GI50 is 0.0585 µM.

Question: What about the TGI [42] of the same compound?
Answer: Its TGI is 3.32 µM.

Question: What about the GI50 [55] of the same compound?
Answer: The GI50 was 0.546 µM.

Question: What about the TGI [55] of the same compound?
Answer: Its TGI is greater than 100 µM.

Question: And the GI50 [43]?
Answer: Its GI50 is 0.665 µM.

Question: What about the TGI [43] of the same compound?
Answer: The TGI was greater than 100 µM.

Question: And the GI50 [56]?
Answer: The GI50 was 0.42 µM.

Question: And the TGI [56]?
Answer: The TGI was greater than 100 µM.

Question: And the GI50 [45]?
Answer: The GI50 was 0.0481 µM.

Question: What about the TGI [45] of the same compound?
Answer: Its TGI is greater than 100 µM.

Question: And the GI50 [46]?
Answer: The GI50 was 0.0687 µM.

Question: And the TGI [46]?
Answer: The TGI was greater than 100 µM.

Question: And the GI50 [47]?
Answer: Its GI50 is greater than 100 µM.

Question: What about the TGI [47] of the same compound?
Answer: The TGI was greater than 100 µM.

Question: What about the GI50 [48] of the same compound?
Answer: Its GI50 is greater than 100 µM.

Question: And the TGI [48]?
Answer: Its TGI is greater than 100 µM.

Question: What about the GI50 [49] of the same compound?
Answer: The GI50 was 0.331 µM.

Question: What about the TGI [49] of the same compound?
Answer: Its TGI is greater than 100 µM.

Question: And the GI50 [51]?
Answer: The GI50 was 0.0615 µM.

Question: What about the TGI [51] of the same compound?
Answer: Its TGI is greater than 100 µM.

Question: And the GI50 [52]?
Answer: Its GI50 is 0.452 µM.

Question: And the TGI [52]?
Answer: Its TGI is greater than 100 µM.
